From patent US9060511B2, “Compositions of dibromomalanomide and their use as biocides” (Rohm and Haas Company, priority 2010, dated 2015)

What was measured:
[1] = tested on: consortium of bacteria: mixture of Pseudomonas aeruginosa, Klebsiella pneumoniae, Staphylococcus aureus, and Bacillus subtilis; assay: Growth inhibition assay (microtiter plate-based synergy assay); type: cell-based; details: for I90 (concentration required for at least 90% inhibition of growth): Example 2; for I90 (concentration required for at least 90% inhibition of growth) / I90 (concentration required to inhibit at least 90% of bacterial growth when used alone): active alone, 37° C., 24 hr; for % Inhibition of Growth: Example 3
Excerpt: (§1) The results provided in the Examples are generated using a growth inhibition assay. Details of each assay are provided below.
(§2) Growth Inhibition Assay. The growth inhibition assay used in the Examples measures inhibition of growth (or lack thereof) of a microbial consortium Inhibition of growth can be the result of killing of the cells (so no growth occurs), killing of a significant portion of the populations of cells so that regrowth requires a prolonged time, or inhibition of growth without killing (stasis). Regardless of the mechanism of action, the impact of a biocide (or combination of biocides) can be measured over time on the basis of an increase in the size of the community.
(§3) The assay measures the efficacy of one or more biocides at preventing growth of a consortium of bacteria in a dilute mineral salts medium. The medium contains (in mg/l) the following components: FeCl3.6H2O (1); CaCl2.2H2O (10); MgSO4.7H2O (22.5); (NH4)2SO4 (40); KH2PO4 (10); K2HPO4 (25.5); Yeast Extract (10); and glucose (100). After all components are added to deionized water, the pH of the medium is adjusted to 7.5. Following filter sterilization, aliquots are dispensed in 100 μl quantities to sterile microtiter plate wells. Dilutions of 2,2-dibromomalonamide (“DBMAL”) and/or “Biocide B” are then added to the microtiter plate. After preparing the combinations of actives as illustrated below, each well is inoculated with 100 μl of a cell suspension containing ca. 1×10^6 cells per milliliter of a mixture of Pseudomonas aeruginosa, Klebsiella pneumoniae, Staphylococcus aureus, and Bacillus subtilis. The final total volume of medium in each well is […]. […] The resulting matrix allows testing of eight concentrations of each active and 64 combinations of actives in the ratios (of actives).
(§4) Controls (not shown) contain the medium with no biocide added.
(§5) Immediately after the microtiter plates are prepared, the optical density (OD) readings for each well is measured at 580 nm and the plates are then incubated at 37° C. for 24 hr. After the incubation period, the plates are gently agitated before OD580 values are collected. The OD580 values at T0 are subtracted from T24 values to determine the total amount of growth (or lack thereof) that occurs. These values are used to calculate the percent inhibition of growth caused by the presence of each biocide and each of the 64 combinations. A 90% inhibition of growth (I90) value is used as a threshold for calculating synergy index (SI) values with the following equation: Synergy Index=MDBMAL/CDBMAL+MB/CB
(§6) where • CDBMAL: Concentration of DBMAL required to inhibit at least 90% of bacterial growth when used alone • CB: Concentration of biocide (B) required to inhibit at least 90% of bacterial growth when used alone. • MDBMAL: Concentration of DBMAL required to inhibit at least 90% of bacterial growth when used in combination with biocide (B). • MB: Concentration of biocide (B) required to inhibit at least 90% of bacterial growth when used in combination with DBMAL The SI values are interpreted as follows: • SI<1: Synergistic combination • SI=1: Additive combination • SI>1: Antagonistic combination
(§7) In the Examples below, the amounts of biocides in the solution are measured in mg per liter of solution (mg/l). Since solution densities are approximately 1.00, the mg/1 measurement corresponds to weight and can be expressed as parts per million (ppm). Both units may therefore be used interchangeably in the Examples.

[2] = as above; type: cell-based; details: Example 3
Excerpt: as §1, §2, §3, §4, §5, §6, §7

With `[Cu]` [Cu, copper] the “I90 (concentration required for at least 90% inhibition of growth)” value [1] was 0.78 mg/L.

`NC(=O)C(Br)(Br)C(N)=O` [DBMAL, 2,2-dibromomalonamide] gave an inhibition at 0.2 µg/mL ([2]; DBMAL Alone 0.20 mg/l) of 2%, an inhibition at 0.39 µg/mL ([2]; DBMAL Alone 0.39 mg/l) of 0% and an inhibition at 0.78 µg/mL ([2]; DBMAL Alone 0.78 mg/l) of 4%. It also gave an inhibition at 1.56 µg/mL ([2]; DBMAL Alone 1.56 mg/l) of 9%, an inhibition at 3.13 µg/mL ([2]; DBMAL Alone 3.13 mg/l) of 21% and an inhibition at 6.25 µg/mL ([2]; DBMAL Alone 6.25 mg/l) of 29%. The inhibition at 12.5 µg/mL ([2]; DBMAL Alone 12.50 mg/l) was 100%, the inhibition at 25 µg/mL ([2]; DBMAL Alone 25.00 mg/l) was 100% and the “I90 (concentration required to inhibit at least 90% of bacterial growth when used alone)” value ([1]; Example 1 Experiment 1) was 12.5 mg/L. The “I90 (concentration required for at least 90% inhibition of growth)” value [1] was 12.5 mg/L.

In the case of `[Zn]` [Zn, zinc, reference compound], the “% Inhibition of Growth” value ([1]; Zn Alone 19.5 mg/l) is reported as 19%, the “% Inhibition of Growth” value ([1]; Zn Alone 39.1 mg/l) is reported as 12% and the “% Inhibition of Growth” value ([1]; Zn Alone 78.1 mg/l) is reported as 18%. For the same molecule, the “% Inhibition of Growth” value ([1]; Zn Alone 156.3 mg/l) was 23%, the “% Inhibition of Growth” value ([1]; Zn Alone 312.5 mg/l) was 33% and the “% Inhibition of Growth” value ([1]; Zn Alone 625.0 mg/l) was 74%. For the same molecule, the “% Inhibition of Growth” value ([1]; Zn Alone 1250.0 mg/l) was 91% and the “% Inhibition of Growth” value ([1]; Zn Alone 2500.0 mg/l) was 92%.

In the case of `[Ag]` [Ag, silver], the “I90 (concentration required to inhibit at least 90% of bacterial growth when used alone)” value ([1]; Example 1 Experiment 1) is reported as 0.063 mg/L and the “I90 (concentration required to inhibit at least 90% of bacterial growth when used alone)” value ([1]; Example 1 subsequent experiment (Experiment 2)) is reported as 0.125 ppm.
